Assay results as given in ChEMBL document CHEMBL4616721, “Nitrogen-Walk Approach to Explore Bioisosteric Replacements in a Series of Potent A2B Adenosine Receptor Antagonists” (J Med Chem, 2020).

Experiments:
[1] = molecular target: T1, CYP2D6 (Homo sapiens, UniProt P10635); assay: Inhibition of CYP2D6 (unknown origin) expressed in insect cell microsomes at 10 uM using dibenzylfluorescein substrate by fluorescence based assay relative to control; assay type: ADME; conditions: insect cell microsomes expressing CYP2D6, probe dibenzylfluorescein
T1 sequence (P10635 whole entry): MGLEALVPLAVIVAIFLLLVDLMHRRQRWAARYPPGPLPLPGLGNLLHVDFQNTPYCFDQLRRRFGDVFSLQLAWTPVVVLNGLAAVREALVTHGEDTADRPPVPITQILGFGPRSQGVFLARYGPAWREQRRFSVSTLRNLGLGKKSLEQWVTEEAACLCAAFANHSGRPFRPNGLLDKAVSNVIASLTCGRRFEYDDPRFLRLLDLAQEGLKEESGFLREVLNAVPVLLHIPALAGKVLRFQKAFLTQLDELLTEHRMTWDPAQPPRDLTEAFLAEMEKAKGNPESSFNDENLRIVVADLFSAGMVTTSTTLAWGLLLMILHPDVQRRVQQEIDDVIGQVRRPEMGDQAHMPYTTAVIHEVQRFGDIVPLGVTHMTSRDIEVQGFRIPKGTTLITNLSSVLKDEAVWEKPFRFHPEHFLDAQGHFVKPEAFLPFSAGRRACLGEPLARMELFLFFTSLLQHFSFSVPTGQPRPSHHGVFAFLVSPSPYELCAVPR

[2] = molecular target: T2, Adenosine receptor A2a (Homo sapiens, UniProt P29274); assay: Displacement [3H]ZM241385 from adenosine A2A receptor in human HeLa cell membranes at 1 uM incubated for 30 mins by scintillation counting method relative to control
T2 sequence (P29274 whole entry): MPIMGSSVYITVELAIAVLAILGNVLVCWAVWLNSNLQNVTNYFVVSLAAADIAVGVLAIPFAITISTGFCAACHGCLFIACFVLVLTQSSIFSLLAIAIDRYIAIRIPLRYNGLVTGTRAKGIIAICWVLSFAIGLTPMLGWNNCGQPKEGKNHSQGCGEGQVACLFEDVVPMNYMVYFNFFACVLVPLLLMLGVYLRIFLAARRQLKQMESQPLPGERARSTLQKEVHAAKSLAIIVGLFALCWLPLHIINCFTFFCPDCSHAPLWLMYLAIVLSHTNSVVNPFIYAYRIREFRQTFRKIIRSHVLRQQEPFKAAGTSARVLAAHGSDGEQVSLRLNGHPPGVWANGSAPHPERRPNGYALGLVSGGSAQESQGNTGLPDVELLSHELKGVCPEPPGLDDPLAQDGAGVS

[3] = molecular target: Cytochrome P450 3A4 (Homo sapiens, UniProt P08684); assay: Inhibition of CYP3A4 (unknown origin) expressed in insect cell microsomes using dibenzylfluorescein substrate by fluorescence based assay; assay type: ADME
Sequence of Cytochrome P450 3A4 (P08684 whole entry): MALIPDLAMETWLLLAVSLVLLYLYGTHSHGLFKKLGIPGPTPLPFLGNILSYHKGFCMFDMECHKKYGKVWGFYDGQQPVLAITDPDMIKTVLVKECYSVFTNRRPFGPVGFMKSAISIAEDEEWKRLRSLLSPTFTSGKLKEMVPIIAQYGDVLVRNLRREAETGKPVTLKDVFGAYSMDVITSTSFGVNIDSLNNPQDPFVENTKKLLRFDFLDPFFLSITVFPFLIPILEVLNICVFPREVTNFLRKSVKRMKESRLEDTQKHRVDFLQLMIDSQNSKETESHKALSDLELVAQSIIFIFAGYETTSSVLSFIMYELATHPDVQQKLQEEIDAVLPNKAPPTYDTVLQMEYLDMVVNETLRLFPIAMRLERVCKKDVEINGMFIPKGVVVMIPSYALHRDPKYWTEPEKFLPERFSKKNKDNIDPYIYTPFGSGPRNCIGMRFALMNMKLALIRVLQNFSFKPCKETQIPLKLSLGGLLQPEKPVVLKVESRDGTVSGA

[4] = molecular target: T1, CYP2D6; assay: Inhibition of CYP2D6 (unknown origin) expressed in insect cell microsomes at 1 uM using dibenzylfluorescein substrate by fluorescence based assay relative to control; assay type: ADME; conditions: insect cell microsomes expressing CYP2D6, probe dibenzylfluorescein
[5] = molecular target: T3, Adenosine receptor A3 (Homo sapiens) (UniProt P0DMS8); assay: Displacement [3H]NECA from adenosine A3 receptor in human HeLa cell membranes at 1 uM incubated for 180 mins by scintillation counting method relative to control
T3 sequence (whole entry): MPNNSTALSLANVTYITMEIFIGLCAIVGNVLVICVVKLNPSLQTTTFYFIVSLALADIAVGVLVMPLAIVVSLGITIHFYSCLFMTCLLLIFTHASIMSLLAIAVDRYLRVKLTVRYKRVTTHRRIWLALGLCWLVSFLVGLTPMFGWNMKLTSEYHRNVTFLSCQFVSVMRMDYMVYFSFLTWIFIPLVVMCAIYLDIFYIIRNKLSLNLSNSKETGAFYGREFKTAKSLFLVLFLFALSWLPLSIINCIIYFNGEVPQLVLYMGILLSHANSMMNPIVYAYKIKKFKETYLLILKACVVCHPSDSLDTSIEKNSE

[6] = molecular target: T2, Adenosine receptor A2a; assay: Displacement [3H]ZM241385 from adenosine A2A receptor in human HeLa cell membranes incubated for 30 mins by scintillation counting method
[7] = molecular target: T4, Adenosine receptor A2b (Homo sapiens, UniProt P29275); assay: Displacement [3H]DPCPX from human adenosine A2B receptor expressed in HEK293 cell membranes incubated for 60 mins by scintillation counting method
T4 sequence (P29275 whole entry): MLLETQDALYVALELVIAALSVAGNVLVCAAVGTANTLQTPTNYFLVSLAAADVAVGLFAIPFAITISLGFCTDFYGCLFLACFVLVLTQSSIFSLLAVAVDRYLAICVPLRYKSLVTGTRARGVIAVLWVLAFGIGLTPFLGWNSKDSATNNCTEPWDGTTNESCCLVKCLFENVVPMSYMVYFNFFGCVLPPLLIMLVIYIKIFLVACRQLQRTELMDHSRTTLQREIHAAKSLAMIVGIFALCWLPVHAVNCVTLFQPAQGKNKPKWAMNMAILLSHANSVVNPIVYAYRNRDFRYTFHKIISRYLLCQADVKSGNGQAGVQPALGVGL

[8] = molecular target: T5, Adenosine receptor A1 (Homo sapiens) (UniProt P30542); assay: Displacement [3H]DPCPX from human adenosine A1 receptor expressed in CHO cell membranes at 1 uM incubated for 60 mins by scintillation counting method relative to control
T5 sequence (whole entry): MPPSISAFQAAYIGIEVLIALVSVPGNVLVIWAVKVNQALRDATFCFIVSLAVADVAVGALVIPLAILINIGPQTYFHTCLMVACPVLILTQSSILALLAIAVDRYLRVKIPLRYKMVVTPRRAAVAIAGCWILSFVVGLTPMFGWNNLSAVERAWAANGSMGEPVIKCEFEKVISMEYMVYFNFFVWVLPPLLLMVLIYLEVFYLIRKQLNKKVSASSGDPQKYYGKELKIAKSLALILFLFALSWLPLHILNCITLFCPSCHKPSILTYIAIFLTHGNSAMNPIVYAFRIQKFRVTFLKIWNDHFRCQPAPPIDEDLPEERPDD

[9] = molecular target: T6, Adenosine receptor A1 (Homo sapiens, UniProt P30542); assay: Displacement [3H]DPCPX from human adenosine A1 receptor expressed in CHO cell membranes incubated for 60 mins by scintillation counting method
T6 sequence (P30542 whole entry): T5 sequence (whole entry)

[10] = Drug metabolism in human liver microsomes after 60 mins in presence of NADP,glucose-6-phosphate and glucose-6-phosphate dehydrogenase by UPLC-MS/MS analysis; assay type: ADME, Microsome; conditions: read-out: Drug metabolism
[11] = Solubility in pH 7 PBS incubated for 4 hrs by nephelometry; assay type: physicochemical
[12] = molecular target: T7, Adenosine receptor A3 (Homo sapiens, UniProt P0DMS8); assay: Displacement [3H]NECA from adenosine A3 receptor in human HeLa cell membranes incubated for 180 mins by scintillation counting method
T7 sequence (P0DMS8 whole entry): T3 sequence (whole entry)

| Compound | inhibition at 10 µM [1] [%] | inhibition [2] [%] | IC50 [3] [µM] | inhibition at 1 µM [4] [%] | inhibition [5] [%] | Ki [6] [nM] | Ki [7] [nM] | inhibition [8] [%] | Ki [9] [nM] | metabolised at 1 h [10] [%] | solubility kinetic at 4 h [11] [µM] | Ki [12] [nM] |
| --- | --- | --- | --- | --- | --- | --- | --- | --- | --- | --- | --- | --- |
| CC1=C(C(=O)OC(C)C)C(c2ccoc2)n2c(nc3ccccc32)N1 (racemic) | 31 | 22 | 2.68 | 8 |  |  |  |  |  |  |  |  |
| CC1=C(C(=O)OC(C)C)C(c2ccco2)n2c(nc3ccccc32)N1 (racemic) | 35 | 25 | 2.9 | 5 |  |  |  |  |  |  |  |  |
| CC1=C(C(=O)OC(C)C)C(c2ncco2)n2c(nc3ccccc32)N1 (racemic) |  |  |  |  | 10 | 1 | 708 | 1 |  |  |  |  |
| CC1=C(C(=O)OC(C)C)C(c2cncs2)n2c(nc3ccccc32)N1 (racemic) |  | 3 |  |  | 5 |  | 68.3 | 2 |  |  |  |  |
| CC1=C(C(=O)OC(C)C)C(c2ccns2)n2c(nc3ccccc32)N1 (racemic) |  | 18 |  |  | 4 |  | 175 | 24 |  |  |  |  |
| CCOC(=O)C1=C(C)Nc2nc3ccccc3n2C1c1cncs1 (racemic) |  | 1 |  |  | 1 |  | 215 | 32 |  |  |  |  |
| CCOC(=O)C1=C(C)Nc2nc3ccccc3n2C1c1cnco1 (racemic) |  |  |  |  |  | 282 | 508 |  | 233 |  |  | 418 |
| CCOC(=O)C1=C(C)Nc2nc3ccccc3n2C1c1ccno1 (racemic) |  | 1 |  |  | 11 |  | 714 | 1 |  |  |  |  |
| CC1=C(C(=O)OC(C)C)C(c2ccno2)n2c(nc3ccccc32)N1 (racemic) |  | 7 |  |  | 1 |  | 1030 | 37 |  |  |  |  |
| CCOC(=O)C1=C(C)Nc2nc3ccccc3n2C1c1ncco1 (racemic) |  |  |  |  | 10 | 2 | 769 | 8 |  |  |  |  |
| CC1=C(C(=O)OC(C)C)C(c2cocn2)n2c(nc3ccccc32)N1 (racemic) | 43 | 19 | 5.92 | 23 | 16 |  | 43.4 | 7 |  |  |  |  |
| CC1=C(C(=O)OC(C)C)C(c2nccs2)n2c(nc3ccccc32)N1 (racemic) |  | 4 |  |  | 20 |  | 753 | 5 |  |  |  |  |

The next lines start with the values.

| inhibition at 10 µM [1] [%] | inhibition [2] [%] | IC50 [3] [µM] | inhibition at 1 µM [4] [%] | inhibition [5] [%] | Ki [6] [nM] | Ki [7] [nM] | inhibition [8] [%] | Ki [9] [nM] | metabolised at 1 h [10] [%] | solubility kinetic at 4 h [11] [µM] | Ki [12] [nM] | Compound |
| --- | --- | --- | --- | --- | --- | --- | --- | --- | --- | --- | --- | --- |
| 18 |  | 4.54 | 8 | 1 | 5 | 402 | 6 |  |  |  |  | CCOC(=O)C1=C(C)Nc2nc3ccccc3n2C1c1ncc[nH]1 (racemic) |
|  | 38 |  |  | 39 |  |  |  | 301 |  |  |  | CC1=C(C(=O)OC(C)C)C(c2cnco2)n2c(nc3ccccc32)N1 (racemic) |
|  |  |  |  | 1 | 3 | 388 | 3 |  |  |  |  | CCOC(=O)C1=C(C)Nc2nc3ccccc3n2C1c1nccs1 (racemic) |
| 37 | 30 | 4.92 | 6 | 13 |  | 23.4 | 21 |  |  |  |  | CCOC(=O)C1=C(C)Nc2nc3ccccc3n2C1c1cnoc1 (racemic) |
| 19 |  | 6.41 | 13 |  |  |  |  |  | 5.62 | > 20 |  | CCOC(=O)C1=C(C)Nc2nc3ccccc3n2C1c1cocn1 (racemic) |
|  | 7 |  |  | 8 |  | 98.7 |  | 20.2 |  |  |  | CCOC(=O)C1=C(C)Nc2nc3ccccc3n2C1c1ccns1 (racemic) |
|  | 40 |  |  | 6 |  | 340 |  | 8.3 |  |  |  | CC1=C(C(=O)OC(C)C)C(c2cn[nH]c2)n2c(nc3ccccc32)N1 (racemic) |
|  | 28 |  |  | 1 |  | 92.6 |  | 14.8 |  |  |  | CCOC(=O)C1=C(C)Nc2nc3ccccc3n2C1c1cn[nH]c1 (racemic) |
